Measurements as given in US10111449B2, “Production procedure for a functional feed based in ellagic acid, cimenol and alliin from vegetable extracts to be used as pronutrient in animal feed” (BIOVET, S.A., priority 2015, dated 2018).

Columns and labels:
yeasts and fungi = assay: Kill of yeasts and fungi on contact with cimenol ring; assay type: cell-based; details: appropriate concentrations, 10 minutes of contact
Method: On yeasts and fungi, appropriate concentrations of cimenol ring achieves to kill 100% of microorganisms in just 10 minutes of contact. Cell lysis and release of cellular contents into the medium are observed. At electronic microscope, yeasts and fungi are malformed and have fractures in cell walls, especially those found in the proliferation phase.

[1] = tested on: bacteria, yeast and fungal; gastrointestinal pathogens; assay: In vitro tests and field trials of cimenol ring against gastrointestinal pathogens
From the text: In vitro tests and field trials indicate that cimenol ring is effective against bacteria, yeast and fungal; gastrointestinal pathogens whose mechanisms of action are: […]

## cimenol [cimenol ring]
Yeasts and fungi
  kill of microorganisms: 100%
[1]
  effectiveness against bacteria, yeast and fungal gastrointestinal pathogens: effective
